Numbered stars: 1 amine (or outer) side, 2 acyl side, 3 side chain; on linkers, the order of the positions; unused ones are H or OH. Square brackets hold non-standard residues; d marks the D form. Ends that are not written are not given here. εLys = N[C@@H](CCCCN[*:1])C(=O)[*:2]; D‑k∗gc = not defined here; K∗GC = not defined here; Ahx = NCCCCCC(=O)O
Assays:
[1] = test system: human Jurkat leukemia cells; assay: Cell accumulation (uptake) of Tc-99m-Tat-peptide complexes in Jurkat cells; type: cell-based; details: for Jurkat Cell Uptake: Table 2, radiolabeled (99mTc) peptides, net cell uptake; for effect of inhibitor on net cell uptake of the Tat-peptide metal complex: colchicine 100 ng/ml, taxol 1 μM, nocodozole 5 μg/ml, cytochalasin D 1 μM, brefeldin A 2.5 μg/ml, wortmannin 100 nM; for 20 min Uptake: [99mTc] complexes, 37° C.; for U/W Ratio: uptake/washout ratio
Description: Control solution for cell uptake experiments was a modified Earle's balanced salt solution (MEBSS) containing (mM): 145 Na^+, 5.4 K^+, 1.2 Ca^2+, 0.8 Mg^2+, 152 Cl^−, 0.8 H2PO4^−, 0.8 SO4^2−, 5.6 dextrose, 4.0 HEPES, and 1% bovine calf serum (vol/vol), pH 7.4±0.05. A 130 mM K^+/20 mM Cl^− solution was made by equimolar substitution of potassium methanesulfonate for NaCl as described by Piwnica-Worms et al. (J. Gen. Physiol., 81:731-748, 1983).
(§1) Characterization of accumulation of Tc-99m-peptide complex was also performed for nonadherent cell lines such as human Jurkat leukemia cells with minor modifications of methods described in the literature (Bosch et al., Leukemia, 11: 1131-1137, 1997). Transport experiments were performed in siliconized microfuge tubes and initiated by addition of 732.5 μl of cells at 2-3×10^6 cells/ml to 10 μl of buffer containing Tc-99m-peptide complex and 7.5 μl of vehicle alone or of any added drug in vehicle at 100-fold the desired concentration. The tubes were incubated in a 37° C. water bath with occasional mixing. The reaction was terminated by centrifuging 250 μl aliquots from the reaction for 10 seconds through 800 μl of a 75:25 mixture of silicon oil, density=1.050 (Aldrich) and mineral oil, density=0.875 (Acros). An aliquot of the aqueous phase was obtained to normalize extracellular concentration of the complex to cell-associated activity, then the oil and aqueous phases were aspirated and the cell pellet extracted in 0.5 ml of 1% SDS, 10 mM sodium borate. For tracer washout experiments, cells were first incubated to plateau uptake (10 min) in loading buffer (37° C.), collected by rapid centrifugation and the pellet resuspended in 50 ml MEBSS (4° C.) to clear extracellular tracer. Following another rapid spin, the cell pellet was resuspended in isotope-free MEBSS (37° C.) and the experiment terminated as above after various times in warm washout buffer. Radioactivity of the cell pellet, buffers and stocks were determined on a gamma counter (Cobra II, 130-165 keV window) and cell protein was determined by the BCA assay (Pierce). Transport data are reported as fmol Tc-complex (mg protein)^−1 (nM0)^− as previously described, with (nM0)^−1 representing total concentration of peptide conjugate in the extracellular buffer (Piwnica-Worms et al., Circulation, 82: 1826-1838, 1990).
Kinetic experiments of [^99mTc]D-Tat-peptide complexes were performed in Jurkat leukemia cells suspended in MEBSS with minor modification of the methods described in Example 6. Transport experiments were performed in siliconized microfuge tubes and initiated by addition of 732.5 μl of cells at 2-3×10^6 cells/ml to 10 μl of MEBSS containing [^99mTc]D-Tat-peptide complex and 7.5 μl of vehicle alone or of any added drug in vehicle at 100 fold the desired concentration. Unless stated otherwise, [^99mTc]D-Tat-peptide complex was added to MEBSS accompanied by a molar excess of unlabeled D-Tat-peptide as obtained directly from the labeling procedure. The final total peptide concentration was 7 nM to 8 μM (1-2 μCi/ml). The tube were incubated at 37° C. and the reaction terminated as previously described. For peptide washout experiments, cells were first incubated to plateau uptake (20 minutes) in MEBSS loading buffer at 37° C., collected by rapid centrifugation and the pellet resuspended in 50 ml of isotope-free MEBSS at 4° C. to clear extracellular tracer. Following another rapid spin, the cell pellet was resuspended in isotope-free MEBSS at 37° C. for various times and the reaction terminated as described previously. Protein assays and determination of gamma activity were as described in Example 6. Absolute concentration of total [Tc]Tat-peptide complex in solution was determined from the specific activity of Tc, based on equations of Mo/Tc generator equilibrium (Lamson et al., J. Nucl. Med., 16:639-641, 1975). […]

[2] = test system: human Jurkat leukemia cells; assay: Washout of Tc-99m-Tat-peptide complexes from preloaded Jurkat cells; type: cell-based; details: for 30 min Washout: residual activity remaining within the cell 30 minutes after a wash in isotope-free buffer
Description: as §1
Kinetic experiments of [^99mTc]D-Tat-peptide complexes were performed in Jurkat leukemia cells suspended in MEBSS with minor modification of the methods described in Example 6. Transport experiments were performed in siliconized microfuge tubes and initiated by addition of 732.5 μl of cells at 2-3×10^6 cells/ml to 10 μl of MEBSS containing [^99mTc]D-Tat-peptide complex and 7.5 μl of vehicle alone or of any added drug in vehicle at 100 fold the desired concentration. Unless stated otherwise, [^99mTc]D-Tat-peptide complex was added to MEBSS accompanied by a molar excess of unlabeled D-Tat-peptide as obtained directly from the labeling procedure. The final total peptide concentration was 7 nM to 8 μM (1-2 μCi/ml). The tube were incubated at 37° C. and the reaction terminated as previously described. For peptide washout experiments, cells were first incubated to plateau uptake (20 minutes) in MEBSS loading buffer at 37° C., collected by rapid centrifugation and the pellet resuspended in 50 ml of isotope-free MEBSS at 4° C. to clear extracellular tracer. Following another rapid spin, the cell pellet was resuspended in isotope-free MEBSS at 37° C. for various times and the reaction terminated as described previously. Protein assays and determination of gamma activity were as described in Example 6. Absolute concentration of total [Tc]Tat-peptide complex in solution was determined from the specific activity of Tc, based on equations of Mo/Tc generator equilibrium (Lamson et al., J. Nucl. Med., 16:639-641, 1975). Transport data are reported as pmol of peptidei (mg protein)^−1 (μM0)^−1, wherein peptidei represents total peptide conjugate within the cells and (nM0)^−1 represents concentration of total peptide conjugate in the extracellular buffer.

1a (GRKKRRQRRR; acetyl; AHA-K*GC chelator, amide) [Conjugate 1a]
Jurkat Cell Uptake ([1]; Jurkat cells): 92.90 ± 21.17 pmol (mg protein)^−1 (μM0)^−1

2b (GRKKRRQRRR; acetyl; AHA-D-k*gc chelator, amide) [Conjugate 2b]
Jurkat Cell Uptake ([1]; Jurkat cells): 50.39 ± 25.73 pmol (mg protein)^−1 (μM0)^−1

4d (Ac-RKKRRQRRR-{Ahx-K∗GC-NH2}; reading uncertain) [Conjugate 4d]
Jurkat Cell Uptake ([1]; Jurkat cells): 90.75 ± 41.04 pmol (mg protein)^−1 (μM0)^−1

5e (Ac-RKKRRQRRR-{Ahx-D‑k∗gc-NH2}; reading uncertain) [Conjugate 5e]
Jurkat Cell Uptake ([1]; Jurkat cells): 48.81 ± 2.91 pmol (mg protein)^−1 (μM0)^−1

8h (RKKRRQRRR-{Ahx-D‑k∗gc-NH2}; reading uncertain) [Conjugate 8h]
Jurkat Cell Uptake ([1]; Jurkat cells): 64.35 ± 1.63 pmol (mg protein)^−1 (μM0)^−1

10j (GRKKRRQRRR; AHA linker, D-k*gc chelator, amide) [Conjugate 10j]
Jurkat Cell Uptake ([1]; Jurkat cells): 106.96 ± 1.55 pmol (mg protein)^−1 (μM0)^−1

12l (RKKRRQRRR; not fully specified; biotin; AHA-K*GC chelator, amide) [Conjugate 12l]
Jurkat Cell Uptake ([1]; Jurkat cells): 51.07 ± 11.78 pmol (mg protein)^−1 (μM0)^−1

28 (Ac-RRRRRRR-{Ahx-D‑k∗gc-NH2}; reading uncertain) [Conjugate 28]
Jurkat Cell Uptake ([1]; Jurkat cells): 34.73 ± 6.99 pmol (mg protein)^−1 (μM0)^−1

30 (Ac-RRRRRRRR-{Ahx-D‑k∗gc-NH2}; reading uncertain) [Conjugate 30]
Jurkat Cell Uptake ([1]; Jurkat cells): 59.02 ± 5.52 pmol (mg protein)^−1 (μM0)^−1

32 (Ac-RRRRRRRRR-{Ahx-D‑k∗gc-NH2}; reading uncertain) [Conjugate 32]
Jurkat Cell Uptake ([1]; Jurkat cells): 129.11 ± 69.01 pmol (mg protein)^−1 (μM0)^−1

COc1cc2c(c(OC)c1OC)-c1ccc(OC)c(=O)cc1[C@@H](NC(C)=O)CC2 [Colchicine, reference compound]
effect of inhibitor on net cell uptake of the Tat-peptide metal complex ([1]; Jurkat cells, data not shown): no significant effect

C[C@H]1CCC/C=C/[C@@H]2C[C@H](O)C[C@H]2[C@H](O)/C=C/C(=O)O1 [brefeldin A, reference compound]
effect of inhibitor on net cell uptake of the Tat-peptide metal complex ([1]; Jurkat cells, data not shown): no significant effect

C=C1[C@@H](C)[C@H]2[C@H](Cc3ccccc3)NC(=O)[C@]23[C@H](OC(C)=O)/C=C/[C@@](C)(O)C(=O)[C@@H](C)C/C=C/[C@H]3[C@@H]1O [cytochalasin D, reference compound]
effect of inhibitor on net cell uptake of the Tat-peptide metal complex ([1]; Jurkat cells, data not shown): no significant effect

COC(=O)Nc1nc2ccc(C(=O)c3cccs3)cc2n1C [nocodozole, reference compound]
effect of inhibitor on net cell uptake of the Tat-peptide metal complex ([1]; Jurkat cells, data not shown): no significant effect

CC(=O)O[C@H]1C(=O)[C@@]2(C)[C@H]([C@H](OC(=O)c3ccccc3)[C@]3(O)C[C@H](OC(=O)[C@H](O)[C@@H](NC(=O)c4ccccc4)c4ccccc4)C(C)=C1C3(C)C)[C@]1(OC(C)=O)CO[C@@H]1C[C@@H]2O [taxol, reference compound]
effect of inhibitor on net cell uptake of the Tat-peptide metal complex ([1]; Jurkat cells, data not shown): no significant effect

COC[C@H]1OC(=O)c2coc3c2[C@@]1(C)C1=C(C3=O)[C@@H]2CCC(=O)[C@@]2(C)C[C@H]1OC(C)=O [wortmannin, reference compound]
effect of inhibitor on net cell uptake of the Tat-peptide metal complex ([1]; Jurkat cells, data not shown): no significant effect

Acetyl- GRKKRRQRRR-AHA- εKGC-amide [Conjugate 1]
20 min Uptake ([1]; Jurkat cells): 77.93 pmol (mg protein)^−1 (μM0)^−1
U/W Ratio ([1]; Jurkat cells): 3.2
30 min Washout [2]: 24.26 pmol (mg protein)^−1 (μM0)^−1

acetyl-GRKKRRORRR-AHA-εKGC-amide(Tc^v-99m) trifluoroacetate [Example 2]
net uptake under isoelectric conditions compared to control buffer ([1]; 130 mM K+/20 mM Cl− and 1 μg/ml valinomycin, data not shown): not decreased
net accumulation in ice-cold buffer ([1]; 4° C., Jurkat cells): only modestly inhibited
time to approach plateau accumulation ([1]; Jurkat cells): ≤ 2 min
time plateau (quasi-steady state) was maintained ([1]; Jurkat cells continuously exposed to the complex): at least 1 hour
Steady-state value of accumulation ([1]; Jurkat cells, n=4): 116±3 fmol (mg protein)^−1 (nM0)^−1
20 min Uptake ([1]; Jurkat cells): 61.73 pmol (mg protein)^−1 (μM0)^−1
in/out ratio ([1]; given a typical cell water space of 4 μl (mg protein)^−1): ~30
extracellular concentration of half-maximal accumulation ([1]; plateau accumulation after 10 minutes, 7 nM to 8 μM, curve fitting): ~3 µM
U/W Ratio ([1]; Jurkat cells): 5.6
cell accumulation complete ([1]; within 2 minutes, extracellular concentration of peptide 950 nM, Jurkat cells): 90%
30 min Washout [2]: 10.99 pmol (mg protein)^−1 (μM0)^−1
residual level of peptide remaining in cells ([2]; slowly exchanging or retaining compartment after washout): < 10 % of peak activity
washout complete ([2]; within 20 minutes, preloaded Jurkat cells): ~90%

acetyl-GRKKRRQRRR-GDEVDG-εKGC-amide (Ac-GRKKRRQRRRGDEVDG[εLys]GC-NH2; SMILES CC(=O)NCC(=O)N[C@@H](CCCNC(=N)N)C(=O)N[C@@H](CCCCN)C(=O)N[C@@H](CCCCN)C(=O)N[C@@H](CCCNC(=N)N)C(=O)N[C@@H](CCCNC(=N)N)C(=O)N[C@@H](CCC(N)=O)C(=O)N[C@@H](CCCNC(=N)N)C(=O)N[C@@H](CCCNC(=N)N)C(=O)N[C@@H](CCCNC(=N)N)C(=O)NCC(=O)N[C@@H](CC(=O)O)C(=O)N[C@@H](CCC(=O)O)C(=O)N[C@H](C(=O)N[C@@H](CC(=O)O)C(=O)NCC(=O)NCCCC[C@H](N)C(=O)NCC(=O)N[C@@H](CS)C(N)=O)C(C)C) [Example 8]
20 min Uptake ([1]; Jurkat cells): 317.92 pmol (mg protein)^−1 (μM0)^−1
U/W Ratio ([1]; Jurkat cells): 6.2
30 min Washout [2]: 50.87 pmol (mg protein)^−1 (μM0)^−1
